Results on 23 compounds are retold here after EP0590919A1, “Therapeutic agents for parkinson's disease” (KYOWA HAKKO KOGYO CO., LTD., priority 1992, dated 1994).

By inhibition is commonly meant the drop in the measured response relative to a control, in per cent.

The structures appear in SMILES notation. Where only a bound is given, the exact number is not on record here.

Data set [1] has as its system dd-strain male mice. The experiment in a line: Acute toxicity test (minimum lethal dose, oral). The class given is in vivo. The settings on record: oral administration, three mice per group, mortality seven days after administration. On the procedure: Test compounds were orally administered to groups of dd-strain male mice weighing 20 ± 1 g, each group consisting of three mice. Seven days after the administration, minimum lethal dose (MLD) of each compound was determined by observing the mortality.

Data set [2] concerns the target T1, A₂ receptor (Rattus norvegicus, UniProt P30543).
T1 construct: from tissue; host or cells: rat corpus striatum membrane preparation
Put plainly: Adenosine A₂ receptor binding test (³H-CGS 21680 binding). The settings on record: [^3H]CGS 21680 was used, rat corpus striatum, read-out: A2 Receptor Inhibition (%); for inhibition at 1 µM: 10^-6M; for inhibition at 0.1 µM: 10^-7M. On the procedure:
The similar procedure as in the above-described adenosine A₁ receptor binding test was repeated using rat corpus striatum to obtain the final precipitate of the tissue thereof. The precipitate was suspended in 50 mM Tris HCl buffer containing 10 mM magnesium chloride and 0.02 unit/mg tissue of adenosine deaminase (manufactured by Sigma Co.) to give a tissue concentration of 5 mg (wet weight)/ml.
The similar procedure as above was repeated to determine the radioactivity bound to the A₂ receptors using 50 µl of CGS 21680 labeled with tritium [³H-2-[p-(2-carboxyethyl)-phenethylamino]-5'-(N-ethylcarboxamide)adenosine: 40 Ci/mmol, manufactured by New England Nuclear Co. (J. Pharmacol. Exp. Ther., 251, 888 (1989)] (final concentration: 4.0 nM) in place of 50 µl of the mixture of N-ethylcarboxamidoadenosine labeled with tritium (³H-NECA: 26 Ci/mmol, manufactured by Amersham Co.) (final concentration: 3.8 nM) and cyclopentyladenosine (CPA, manufactured by Sigma Co.) (final concentration: 50 nM).
The inhibition rate of the test compound against the binding of A₂ receptors (³H-CGS 21680 binding) was calculated by the following equation: [formula] [Notes] • 1. "B" means the amount of radioactivity of ³H-CGS 21680 bound in the presence of a test compound at a concentration shown in Table 4. • 2. "T" means the amount of radioactivity of ³H-CGS 21680 bound in the absence of a test compound. • 3. "N" means the amount of radioactivity of ³H-CGS 21680 bound in the presence of 100 µM CPA.

In data set [3] the test system is Haloperidol-Induced Catalepsy. The experiment in a line: Effect on haloperidol-induced catalepsy. The class given is in vivo, mice. As to conditions: 10 mg/kg orally; for Number of the Animals Showing Remission: of five mice, catalepsy score not more than 4 points; for Remission Rate (%): rate of decrease in total score based on control group; for Total Score: total catalepsy score of five mice (25 points at the full), haloperidol 1.0 mg/kg i.p. Here is the method: Haloperidol (Janssen Pharmaceutica) suspended in 0.3% CMC was intraperitoneally administered to each mouse at a dose of 1.0 mg/kg. Test compounds were suspended in 0.3% CMC or in injectable distilled water (Otsuka Pharmaceutical Co., Ltd.) containing Tween 80. L-DOPA (Kyowa Hakko Kogyo Co., Ltd.) and benserazide hydrochloride (Kyowa Hakko Kogyo Co., Ltd.) were suspended in 0.3% CMC. One hour after the haloperidol administration, the test compound suspensions and the control suspension [injectable distilled water (Otsuka Pharmaceutical Co., Ltd.) containing Tween 80] containing no test compound were orally administered to separate groups of the mice (0.1 ml per 10 g of body weight). One hour after the administration of the test compound, the forelimbs of each mouse and subsequently the hindlimbs of the same mouse were placed on a 4.5 cm-high, 1.0 cm-wide bar and catalepsy was estimated. […] The catalepsy score and the standard of judgment are shown below. […] The number of the animals showing remission against catalepsy is the number of the mice for which the catalepsy score was not more than 4 points. […] The ED₅₀ values were calculated by Probit analysis.

T1 sequence (P30543 whole entry): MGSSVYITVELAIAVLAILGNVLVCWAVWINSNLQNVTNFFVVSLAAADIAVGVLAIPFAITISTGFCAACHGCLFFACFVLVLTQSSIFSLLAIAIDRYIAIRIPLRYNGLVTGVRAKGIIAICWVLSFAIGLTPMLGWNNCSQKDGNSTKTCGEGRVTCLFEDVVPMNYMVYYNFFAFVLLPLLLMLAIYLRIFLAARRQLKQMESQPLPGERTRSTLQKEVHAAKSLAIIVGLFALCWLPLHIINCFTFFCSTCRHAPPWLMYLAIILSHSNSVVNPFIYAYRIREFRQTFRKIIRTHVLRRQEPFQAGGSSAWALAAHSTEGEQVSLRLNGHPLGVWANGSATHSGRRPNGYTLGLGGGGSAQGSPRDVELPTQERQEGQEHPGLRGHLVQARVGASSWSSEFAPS

As for `CCn1c(=O)c2c(nc(/C=C/c3ccc(C)cc3)n2C)n(CC)c1=O` [Compound 44, (E)-1,3-Diethyl-7-methyl-8-(4-methylstyryl)xanthine], the MLD in data set [1] is recorded as > 100 mg/kg. Also, in data set [2], the inhibition at 1 µM is 103% and the inhibition at 0.1 µM came out at 64%. Further, in data set [3], the “Number of the Animals Showing Remission” value is recorded as 3, the “Remission Rate (%)” value is 32% and the “Total Score” value was 17.
As to `CCn1c(=O)c2c(nc(/C=C/c3ccc(OC)c(F)c3)n2C)n(CC)c1=O` [Compound 103, (E)-1,3-Diethyl-8-(3-fluoro-4-methoxystyryl)-7-methylxanthine], in data set [1], the MLD is reported as > 100 mg/kg. Besides, in data set [2], the inhibition at 1 µM stood at 102% and the inhibition at 0.1 µM was found to be 75%. In data set [3], the “Number of the Animals Showing Remission” value was 3, the “Remission Rate (%)” value is 36% and the “Total Score” value is on record as 16.
`CCn1c(=O)c2[nH]c(/C=C/c3cccc(Br)c3)nc2n(CC)c1=O` [Compound 91, (E)-8-(3-Bromostyryl)-1,3-diethylxanthine]: in data set [1], the MLD is > 100 mg/kg. In addition, in data set [2], the inhibition at 1 µM was 51% and the inhibition at 0.1 µM was 9%.
With `CCCCOc1ccc(/C=C/c2nc3c([nH]2)c(=O)n(CC)c(=O)n3CC)cc1` [Compound 41, (E)-8-(4-Butoxystyryl)-1,3-diethylxanthine], in data set [1], the MLD is reported as > 100 mg/kg. In data set [2], the inhibition at 1 µM is 52% and the inhibition at 0.1 µM is 27%.
The corresponding values for `CCn1c(=O)c2[nH]c(/C=C/c3ccc(OC)c(C)c3)nc2n(CC)c1=O` [Compound 47, (E)-1,3-Diethyl-8-(4-methoxy-3-methylstyryl)xanthine] are > 100 mg/kg, 92% and 67%.
As for `CCn1c(=O)c2c(nc(/C=C/c3cccc(C(F)(F)F)c3)n2C)n(CC)c1=O` [Compound 94, (E)-1,3-Diethyl-7-methyl-8-(3-trifluoromethylstyryl)xanthine], in data set [1], the MLD was > 100 mg/kg. Besides, in data set [2], the inhibition at 1 µM was found to be 98% and the inhibition at 0.1 µM came out at 71%.
On to `CCn1c(=O)c2c(nc(/C=C/c3cccc(OC(F)(F)F)c3)n2C)n(CC)c1=O` [Compound 80, (E)-1,3-Diethyl-7-methyl-8-(3-trifluoromethoxystyryl)xanthine], for which, in data set [1], the MLD was > 100 mg/kg. In addition, in data set [2], the inhibition at 1 µM stood at 86% and the inhibition at 0.1 µM was 72%.
As to `CCn1c(=O)c2[nH]c(/C=C/c3ccc(Br)cc3)nc2n(CC)c1=O` [Compound 77, (E)-8-(4-Bromostyryl)-1,3-diethylxanthine], in data set [1], the MLD is > 100 mg/kg. For the same compound, in data set [2], the inhibition at 1 µM is 54% and the inhibition at 0.1 µM is 54%.
As to `CCn1c(=O)c2c(nc(/C=C/c3cc4c(cc3Br)OCO4)n2C)n(CC)c1=O` [Compound 96, (E)-8-(2-Bromo-4,5-methylenedioxystyryl)-1,3-diethyl-7-methylxanthine], the MLD in data set [1] was > 100 mg/kg. For the same compound, in data set [2], the inhibition at 1 µM was found to be 101% and the inhibition at 0.1 µM turned out to be 84%.
Turning to `CCn1c(=O)c2[nH]c(/C=C/c3cc(F)cc(F)c3)nc2n(CC)c1=O` [Compound 87, (E)-8-(3,5-Difluorostyryl)-1,3-diethylxanthine], the MLD in data set [1] was > 100 mg/kg. Moreover, in data set [2], the inhibition at 1 µM was determined as 66% and the inhibition at 0.1 µM stood at 59%.
The matching figures for `CCn1c(=O)c2c(nc(/C=C/c3ccc(OC)c(C)c3)n2C)n(CC)c1=O` [Compound 48, (E)-1,3-Diethyl-8-(4-methoxy-3-methylstyryl)-7-methylxanthine]: > 100 mg/kg, 99% and 83%.
Consider `CCn1c(=O)c2[nH]c(/C=C/c3cc4c(cc3Br)OCO4)nc2n(CC)c1=O` [Compound 95, (E)-8-(2-Bromo-4,5-methylenedioxystyryl)-1,3-diethylxanthine], for which the MLD in data set [1] was > 100 mg/kg. Further, in data set [2], the inhibition at 1 µM is 89% and the inhibition at 0.1 µM stood at 75%.
The corresponding values for `CCn1c(=O)c2[nH]c(/C=C/c3cccc(C(F)(F)F)c3)nc2n(CC)c1=O` [Compound 93, (E)-1,3-Diethyl-8-(3-trifluoromethylstyryl)xanthine] are > 100 mg/kg, 85% and 53%.
The corresponding values for `CCn1c(=O)c2[nH]c(/C=C/c3cccc(OC)c3)nc2n(CC)c1=O` [Compound 39, (E)-1,3-Diethyl-8-(3-methoxystyryl)xanthine] are > 100 mg/kg, 88% and 80%.
The matching figures for `CCn1c(=O)c2[nH]c(/C=C/c3cccc([N+](=O)[O-])c3)nc2n(CC)c1=O` [Compound 89, (E)-1,3-Diethyl-8-(3-nitrostyryl)xanthine]: > 100 mg/kg, 78% and 59%.
On to `CCn1c(=O)c2c(nc(/C=C/c3ccc(-c4ccccc4)cc3)n2C)n(CC)c1=O` [Compound 101, (E)-1,3-Diethyl-7-methyl-8-(4-phenylstyryl)xanthine], for which the MLD in data set [1] is listed as > 100 mg/kg. Also, in data set [2], the inhibition at 1 µM came to 76% and the inhibition at 0.1 µM worked out at 36%.
The corresponding values for `CCn1c(=O)c2[nH]c(/C=C/c3cccc(F)c3C)nc2n(CC)c1=O` [Compound 108, (E)-1,3-Diethyl-8-(3-fluoro-2-methylstyryl)xanthine] are > 100 mg/kg, 94% and 87%.
The corresponding values for `CCn1c(=O)c2c(nc(/C=C/c3ccc(F)c(Cl)c3)n2C)n(CC)c1=O` [Compound 105, (E)-8-(3-Chloro-4-fluorostyryl)-1,3-diethyl-7-methylxanthine] are > 100 mg/kg, 96% and 76%.
The corresponding values for `CCn1c(=O)c2[nH]c(/C=C/c3cccc(OC(F)(F)F)c3)nc2n(CC)c1=O` [Compound 79, (E)-1,3-Diethyl-8-(3-trifluoromethoxystyryl)xanthine] are > 100 mg/kg, 79% and 53%.
Turning to `CCn1c(=O)c2[nH]c(/C=C/c3ccc(OCOC)cc3)nc2n(CC)c1=O` [Compound 81, (E)-1,3-Diethyl-8-(4-methoxymethoxystyryl)xanthine], in data set [1], the MLD is listed as > 100 mg/kg. Also, in data set [2], the inhibition at 1 µM came to 95% and the inhibition at 0.1 µM came to 78%.
The matching figures for `CCn1c(=O)c2[nH]c(/C=C/c3ccc(F)cc3)nc2n(CC)c1=O` [Compound 83, (E)-1,3-Diethyl-8-(4-fluorostyryl)xanthine]: > 100 mg/kg, 70% and 75%.
Consider `CCn1c(=O)c2c(nc(/C=C/c3ccc(C(F)(F)F)cc3)n2C)n(CC)c1=O` [Compound 74, (E)-1,3-Diethyl-7-methyl-8-(4-trifluoromethylstyryl)xanthine], for which the MLD in data set [1] is recorded as > 300 mg/kg. In addition, in data set [2], the inhibition at 1 µM was found to be 87% and the inhibition at 0.1 µM came to 59%.
The matching figures for `CCn1c(=O)c2c(nc(/C=C/c3ccc(OCCCCBr)cc3)n2C)n(CC)c1=O` [Compound 114, (E)-8-[4-(4-Bromobutoxy)styryl]-1,3-diethyl-7-methylxanthine]: > 100 mg/kg, 87% and 23%.
